Data from publication PMC10398685 (ACS Omega, 2023).
Entries after “also recorded” stand apart in the source; their conditions may differ. Read-outs that look alike come from different tables or passages of the source.

Columns and labels:
[1] = Microsomal stability, mouse; assay type: in vitro ADME; conditions: triplicates; for Microsomal stability Rem. at 45 min / Microsomal stability T1/2: 0.5 mg/ml mouse microsomes, 5uM; for microsomal CLint at 5 µM / half-life at 5 µM: pH 7.4, 0.5 mg/ml mouse microsomes; for half-life at 5 µM: read-out: Microsomal stability T1/2
[2] = tested on: SARS-CoV-2; assay: microbe, parasite or virus in culture; assay type: cell-based; conditions: Severe acute respiratory syndrome coronavirus 2, Vero C1008, 72 h; VeroE6 cells, MOI~0.03, 3 days incubation, CPE by XTT; read-out: EC50 (anti-SARS-CoV-2 activity)
[3] = in vitro; conditions: human
[4] = molecular target: SARS-CoV-2 nsp14 7-N MTase (Severe acute respiratory syndrome coronavirus 2, UniProt P0DTD1); assay: biochemical; conditions: Echo MS assay, 20 nM nsp14, 4 μM SAM, 4 μM GpppA, duplicates
[5] = Plasma stability, human; assay type: in vitro ADME; conditions: 5uM, triplicates, 37 °C
Protocol: The microsomal half-lives (t1/2) were calculated using the equation t1/2=0.693/k, where k is the slope found in the linear fit of the natural logarithm of the fraction remaining of the parent compound vs. incubation time. […]
To determine plasma stability of the compounds, 5 μM of these were incubated with human pooled plasma from 50 donors (Biowest) for 120 min and 240 min at 37 °C. The reactions were terminated by adding four volumes of ice -cold methanol, the samples were then mixed vigorously and left at -20 °C for 1 h. After that, the samples were centrifuged, and the supernatant was analyzed by means of ECHO -MS® System (Sciex). Zero time points were prepared by adding ice-cold methanol to the compound prior the addition of the plasma. […]

[6] = Microsomal stability, human; assay type: in vitro ADME; conditions: triplicates; for Microsomal stability Rem. at 45 min / Microsomal stability T1/2: 0.5 mg/ml human microsomes, 5uM; for microsomal CLint at 5 µM / half-life at 5 µM: pooled liver microsomes, pH 7.4, 0.5 mg/ml human microsomes; for half-life at 5 µM: read-out: Microsomal stability T1/2
Description: 50% methanol. The samples were then transferred to ECHO® -compatible 384-well plates and the amount of analytes were quantified by the ECHO -MS® System (Sciex) where acoustic droplet ejection module is coupled with Sciex 6500® triple quadrupole mass spectrometer operating with an electrospray ionization source. Spectrometer was run in the multiple reaction monitoring (MRM) mode. When necessary, the processed samples were further diluted in 50% methanol to fit in the calibration range. Calibration curves of the compounds in 50% methanol were measured alongside the samples within the same run. […]
3.4. Microsomal stability […]
The reactions were […]
terminated by the addition of four volumes of ice-cold methanol, mixed vigorously and left at -20 °C for 1 h. After that, the samples were centrifuged and the supernatants were analyzed by means of ECHO-MS® System (Sciex, Framingham, MA, USA). Zero time points were prepared by adding ice-cold methanol to the mixture of compound with cofactors prior to the addition of microsomes. The microsomal half-lives (t1/2) were calculated using the equation t1/2=0.693/k, where k is the slope found in the linear fit of the natural logarithm of the fraction remaining of the parent compound vs. incubation time. Intrinsic clearance (CLint) was calculated using the following formula: CLint = V * ln2 /t1/2, where V = incubation volume per milligram of microsomal protein (µL/mg) and t1/2 = microsomal half-life. […]
3.6. Caco-2 permeability assay
Transepithelial bi-directional transport of tested compounds (5 µM, pH 7.4/7.4) across the Caco-2 monolayers was studied using the BD BioCoat HTS Caco -2 assay system (BD Biosciences, Bedford, MA) as described in detail elsewhere.17 Aliquots were collected from the donor and acceptor compartment at the end of transport period (3 h), integrity of monolayers were verified using Lucifer Yellow dye and the compounds were quantified using LC-MS/MS (Sciex 6500® triple quadrupole). The apparent permeability coefficient (Papp) was calculated from the following equation: Papp = (dQ / dt) / C0 * A, where dQ/dt is the rate of absorption of the drug across the cells, C0 is the donor compartment concentration at time zero, and A is the area of the monolayer. Efflux ratio was expressed as (Papp B-A) / (Papp A-B). Recovery (%) was determined as (total compound mass in donor and receiver compartments at the end of the incubation / initial compound mass in the donor compartment) x 100.

[7] = tested on: SARS-CoV-2; assay: microbe, parasite or virus in culture; assay type: cell-based; conditions: Severe acute respiratory syndrome coronavirus 2, 72 h; Calu-3 cells, MOI~0.03, 3 days incubation, CPE by XTT; read-out: EC50 (anti-SARS-CoV-2 activity)

Compound	Microsomal stability Rem. at 45 min [1]	microsomal CLint at 5 µM [1]	half-life at 5 µM [1]	EC50 [2]	CC50 at 3 days [3]	IC50 [4]	Plasma stability Rem. at 120 min [5]	Plasma stability T1/2 [5]	Microsomal stability Rem. at 45 min [6]	microsomal CLint at 5 µM [6]	half-life at 5 µM [6]	EC50 [7]	Microsomal stability T1/2 [1]	Microsomal stability T1/2 [6]
CCN(C[C@H]1O[C@@H](n2cc(C#Cc3nc4ccccc4[nH]3)c3c(N)ncnc32)[C@H](O)[C@@H]1O)S(=O)(=O)c1ccc(OC)c(C#N)c1 [Compound 12a]	48.7 ± 3.2%	32.6 ± 2.1 µL/min/mg	44.1 ± 2.7 min	> 100 µM	> 100 µM	0.037 ± 0.0065 µM	84.3 ± 2.6%	Stable	18.5 ± 4.0%	77.3 ± 10.3 µL/min/mg	17.3 ± 2.2 min	> 100 µM	–	–
COc1ccc(S(=O)(=O)N(C)C[C@H]2O[C@@H](n3cc(C#Cc4cccnc4)c4c(N)ncnc43)[C@H](O)[C@@H]2O)cc1C#N [Compound 12s]	50.2 ± 3.2%	30.5 ± 4.7 µL/min/mg	50.8 ± 5.1 min	> 100 µM	> 100 µM	0.021 ± 0.003 µM	86.9 ± 0.9%	Stable	55.9 ± 4.7%	27.1 ± 2 µL/min/mg	53.7 ± 2.7 min	> 100 µM	–	–
COc1ccc(S(=O)(=O)N(C)C[C@H]2O[C@@H](n3cc(C#Cc4ccc(C(N)=O)cc4)c4c(N)ncnc43)[C@H](O)[C@@H]2O)cc1C#N [Compound 12r]	80.9 ± 12.0%	–	–	> 100 µM	> 100 µM	0.023 ± 0.0037 µM	89.7 ± 0.6%	Stable	83.3 ± 2.6%	–	–	> 100 µM	Stable; also recorded: excellent stability	Stable; also recorded: excellent stability
CCN(C[C@H]1O[C@@H](n2cc(C#Cc3ccc(C(N)=O)cc3)c3c(N)ncnc32)[C@H](O)[C@@H]1O)S(=O)(=O)c1ccc(OC)c(C#N)c1 [Compound 12o]	65.9 ± 3.2%	19.2 ± 1.7 µL/min/mg	74.9 ± 7.5 min	> 100 µM	> 100 µM	0.049 ± 0.0062 µM	95.6 ± 5.1%	Stable	30.5 ± 5.3%	53.8 ± 5.8 µL/min/mg	26.2 ± 3.4 min	> 100 µM	–	–
COc1ccc(S(=O)(=O)N(C)C[C@H]2O[C@@H](n3cc(C#Cc4cnc5ccccc5c4)c4c(N)ncnc43)[C@H](O)[C@@H]2O)cc1C#N [Compound 12q]	101.0 ± 3.4%	–	–	> 100 µM	> 100 µM	0.019 ± 0.0025 µM	97.2 ± 4.1%	Stable	105.0 ± 3.9%	–	–	> 100 µM	Stable; also recorded: excellent stability	Stable; also recorded: excellent stability
CCN(C[C@H]1O[C@@H](n2cc(C#Cc3cccnc3)c3c(N)ncnc32)[C@H](O)[C@@H]1O)S(=O)(=O)c1ccc(OC)c(C#N)c1 [Compound 12l]	37.4 ± 0.5%	40.9 ± 0.8 µL/min/mg	33.7 ± 0.7 min	> 100 µM	> 100 µM	0.038 ± 0.0059 µM	89.8 ± 2.0%	Stable	78.6 ± 1.1%	11.2 ± 1.5 µL/min/mg	113 ± 3.5 min	> 100 µM	–	–
CCN(C[C@H]1O[C@@H](n2cc(C#Cc3cnc4ccccc4c3)c3c(N)ncnc32)[C@H](O)[C@@H]1O)S(=O)(=O)c1ccc(OC)c(C#N)c1 [Compound 12e]	79.3 ± 3.8%	–	–	> 100 µM	> 100 µM	0.028 ± 0.005 µM	76.3 ± 13.7%	Stable	60.2 ± 3.5%	19.6 ± 6.1 µL/min/mg	91.3 ± 12.2 min	> 100 µM	Stable	–
CCN(C[C@H]1O[C@@H](n2cc(C#Cc3ccc(N)nc3)c3c(N)ncnc32)[C@H](O)[C@@H]1O)S(=O)(=O)c1ccc(OC)c(C#N)c1 [Compound 12h]	43.0 ± 0.8%	37.8 ± 1.8 µL/min/mg	37.3 ± 1.8 min	> 100 µM	> 100 µM	0.046 ± 0.0058 µM	102.3 ± 4.8%	Stable	47.2 ± 3.5%	34.9 ± 4 µL/min/mg	38 ± 3.7 min	> 100 µM	–	–
